Earlier results, collected in US20030027805A1, “Use of 1,4-androstadienedione as a method of increasing levels of the anabolic/androgenic steroid boldenone in humans” (priority 2000, published 2003).
Values joined by “and” are separate entries in the source; they are usually repeats but may differ in a detail not shown here. Equal values may be shown once.

Details: for excretion in 17-hydroxy form: urinary, after oral dosing, comparison reported in literature

SMILES	excretion in 17-hydroxy form	excretion of 17beta-hydroxysteroid metabolites compared with 1-androstenedione (comparison by the same authors with later 1-androstenedione study)	total recovery of 17-OH steroids (human, two subjects, urine, within 24 hours after oral administration of 100 mg, boldenone conjugates plus other 17-beta hydroxysteroids)	urinary recovery of boldenone conjugates (human, two subjects, within 24 hours after oral administration of 100 mg)
C[C@]12CC[C@H]3[C@@H](CCC4=CC(=O)CC[C@@]43C)[C@@H]1CC[C@@H]2O [testosterone, reference compound]	only in very small amounts			
C[C@]12CCC(=O)C=C1CC[C@@H]1[C@@H]2CC[C@]2(C)C(=O)CC[C@@H]12 [androstenedione, reference compound]	only in very small amounts			
C[C@]12C=CC(=O)C=C1CC[C@@H]1[C@@H]2CC[C@]2(C)C(=O)CC[C@@H]12 [androstadienedione, 1,4-androstadiene-3,17-dione]		far more	18.4 % of the given dose and 21.2 % of the given dose	7.1 % of the initial dosage and 11.1 % of the initial dosage
